Data: patent publication US9346854B2, “Anti-inflammatory peptides and use thereof” (Yeda Research and Development Co. Ltd., priority 2012, dated 2016)
Entries after “also recorded” stand apart in the source; their conditions may differ. Read-outs that look alike come from different tables or passages of the source. No end group written: not given here.

Tests used:
[1] = test system: E. coli 25922; type: cell-based
Description: (§1) The antibacterial activity of the peptides was examined in sterile 96-well plates (Nunc F96 microtiter plates) in a final volume of 100 μl, as follows. Aliquots (50 μl) of a suspension containing bacteria at a concentration of 10^6 colony-forming units/ml in culture medium (LB medium) were added to 50 μl of peptide serially diluted in culture medium (100 μM-0.78 μM). Inhibition of growth was determined by eye after an incubation of 18-20 h at 37° C. Antibacterial activities were expressed as the minimal inhibitory concentration, the concentration at which 100% inhibition of growth was observed after 18-20 h of incubation. In these the effect of the peptides on E. coli (ATCC:25922) and S. aureus (ATCC:6538P) was tested.

[2] = test system: S. aureus 6538P; type: cell-based
Description: as §1

[3] = test system: RAW264.7 macrophages; type: cell-based, murine; conditions: for IC50: 2 h; for LC50 (cytotoxicity): toxicity, XTT, 2 hours incubation (method: LC50), read-out: IC50 macrophages RAW264.7
Description: (§2) All in vitro assays were performed on RAW264.7 murine macrophages (ATCC-TIB71). Cells were grown in DMEM supplemented with 10% FBS, L-glutamine, sodium pyruvate, non-essential amino acids and antibiotics (Biological Industries, Beit Haemek, Israel). Incubator was set on 37° C. with a humidified atmosphere containing 5% CO2.
1×10^4 cells per well were grown overnight on a 96-well plate. The following day, the media were replaced with 90 μl fresh culture medium and 10 μl solution buffer containing different concentrations of the different peptides. Peptide concentrations ranged from 0.78-100 μM. The cells were then incubated for 2 hours before adding to each well 50 μl of 2,3-bis-2H-tetrazolium-5-carboxanilide inner salt (XTT) reaction solution (Biological Industries). Viability was determined as described previously (Makovitzki et al. Cancer Res 69, 3458-63, 2009; Papo et al. 2006). The LC50 (the concentration at which 50% of the cells die) for each peptide was obtained from the dose-dependent cell viability curves.

[4] = test system: RBL cells; type: cell-based, rat
[5] = test system: RBL-2H3 cells; experiment: IgE and DNP-BSA mediated degranulation (β-hexoseaminidase release); type: cell-based, rat; conditions: for Inhibition of Degranulation (%): peptide concentration 20 μM, derived from FIG. 9A
Description: In order to study the specific effect of the peptides of the invention on direct IgE mediated degranulation, the rat basophilic cell line (RBL-2H3) was used. This cell line expresses high levels of surface IgE receptor that binds IgE with high affinity (FcεRI). Upon adding an allergen (IgE antigen) there is a cross-linking of adjacent FcεRs that results in degranulation and release of histamine. Degranulation was measured as release of intracellular β-hexoseaminidase (Nunomura et al., Int Immunol 17, 685-94, 2005).
In this assay system, RBL cells were incubated with the DNP-specific murine monoclonal IgE SPE7 (Eshhar et al., J Immunol 124:775, 1980) for 2.5 hours. The cells were washed and centrifuged and then further incubated with the DNP-BSA antigen that crossed-link the FcεRI bound IgE. Next, extracellular hexoseaminidase levels were evaluated by their ability to hydrolyze the 4-nitrophenyl-N-acetyl-β-D-glucosaminide substrate which results in the accumulation of a colored product. The tested peptides (see Table 5) were added at different concentrations and stages of the assay and tested for their ability to inhibit this reaction.
In the first set of experiments, RBLs were incubated with different concentrations of the (AL)6AK2 peptide or irrelevant control peptide (alpha subunit peptide) in the presence of IgE. Following incubation, the cells were washed and DNP10-BSA with peptide was added to crosslink adjacent FcεRI (FIG. 6). Following incubation, the cells were washed and suspended in the degranulation medium for either 30 (FIG. 6A) or 60 min. (FIG. 6B).

[6] = LPS binding assay with NBD-labeled peptides; conditions: NBD-labeled peptide affinity to LPS
Description: NBD-labeled peptides (50 μl, 2 μM, PBS^−/− 2% DMSO) were added to different concentrations of LPS (50 μl PBS^−/−) in a opaque black 96 well plate. After 10 minutes of incubation at room temperature, the fluorescence was measured using an excitation of 467 nm and emission of 530 nm. The data were plotted and Kd and Bmax values obtained using NLLSQ analysis.

[7] = test system: TLR4 activation by LPS; experiment: TNFα secretion by RAW264.7 macrophages stimulated with LPS; type: cell-based, murine; conditions: for inhibition of LPS activation of macrophages (TNFα secretion), in words: LPS 10 ng/ml, peptide 20 μM (FIGS. 1A, 2)
Description: as §2
(§3) 2×10^5 cells per well were cultured overnight in a 96-wells plate. The following day, the media were replaced by fresh DMEM, including all supplements. Peptides were dissolved in DMSO and added to the cells in different concentrations. Final concentration of DMSO was 1% for all groups. Cells were incubated with the peptide for 2 hours, then LPS (TLR4 activator) or LTA (TLR2 activator) was added to the cells at 10 ng/ml or 500 ng/ml, respectively. The cells were further incubated for 5 hrs at 37° C., after which samples of the media from each treatment were collected and stored at −20° C. TNFα concentration in each sample was evaluated using a mouse TNFα enzyme-linked immunosorbent assay kit (Biosource™ ELISA, Invitorgen), according to the manufacturer's protocol. All experiments were done in triplicates.

[8] = test system: Balb/c mice; experiment: Antigen (OVA) induced anaphylactic shock; type: in vivo; conditions: for Survival of anaphylactic shock (%): i.v. 10-15 mg/kg, 30-45 minutes prior to soluble OVA challenge
Description: The inhibitory capacity of the Kn(AL)nKn peptides was tested in the most rigorous manner for inhibition of otherwise fatal anaphylaxis. In this model, Balb/c mice were immunized by an i.p. injection of 100 μg OVA in 5 mg Alum and 1.5 μg pertusis, a protocol that favors IgE-type of response. Three weeks later the immunized mice received an i.v. injection of soluble OVA (3.5-5 μg), resulting in a rapid and aggressive anaphylactic shock. In this specific model, the immunized mice die within 10-20 minutes after the systemic (i.v.) OVA injection.
To test the ability of the peptides of the invention to inhibit anaphylactic shock formation, an i.v. injection of the K2(AL)8K2 peptide at 10-15 mg/kg was administered, 30-45 minutes prior to the soluble OVA challenge. Strikingly, this single injection rescued 87% of the sensitized mice (Table 7). […] In several mice that were protected by the K2(AL)8K2 peptide, the protection lasted for at least 2 days. Peptide treated mice died of anaphylactic shock only after systemic injection of a very high dose of OVA. Still, the exact conditions for optimum protective activity need to be validated.

[9] = test system: C57BL mice; experiment: In vivo toxicity in mice; conditions: 100 mg/kg i.p.
Description: Toxicity was tested by intraperitoneal injection of K2(AL)8K2 (100 mg/kg in 400 μl saline) in female C57B1 mice (n=2). Mice were continuously observed for 1 hour immediately following injection and once per day for 7 days. To examine the effect of our peptides on acute septic shock driven by LPS hyperactivation of TLR4 we have used murine models as described before (Zheng et al. Int Immunopharmacol 10, 1209-19, 2010; Arima et al, 2005). Briefly, 12 weeks old C57 Black female mice were treated with 100 ng of LPS injected IP in a saline solution (200 μl, pH 6.5) containing 200 mg/ml of D-galactosamine (Calbiochem). Treated mice received one IP injection of 10 mg/kg peptide dissolved in saline (200 μl) following the LPS injection. In the second model heat-killed bacteria were used to induce a lethal septic shock. E. coli cells were grown to a mid log phase (OD=0.5) at 37° C., cooled on ice, and centrifuged at 3500 rpm for 10 minutes at 4° C. The cells were re-suspended in saline for a concentration of 2×10^9 cells in 200 μl and heated at 95° C. for 30 minutes. Each animal received an IP injection of 2×10^9 cells in 200 μl saline followed by injection of 10 mg/kg peptide dissolved in saline (200 μl). Animals were monitored for survival and for signs of sepsis for the next 14 days after LPS injection. Peptides used as the acetic acid salts for in vivo experiments. […]

[10] = test system: TLR2 activation by LTA; experiment: TNFα secretion by RAW264.7 macrophages stimulated with LTA; type: cell-based, murine; conditions: LTA 500 ng/ml; peptide 20 μM (FIG. 1A)
Description: as §2, §3

[11] = 100% inhibition of growth after 18-20 h

ALALALALALALAKK-NH2 [(AL)6AK2, ALALALALALALAKK]
MIC E. coli 25922 [1]; 25922: >100 µM
MIC S. aureus 6538P ([2]; 6538P): >100 µM
IC50 [3]: > 100 µM
killing or growth inhibition of RBL cells [4]: did not kill or inhibited the growth

ALALALALALALALALALKK [4D-(AL)9K2]
MIC E. coli 25922 [1, 11]: >100 µM
MIC S. aureus 6538P [2, 11]: >100 µM
LC50 (cytotoxicity) [3]: 50 µM

ALALALALALALALALALKK-NH2 [(AL)9K2]
MIC E. coli 25922 [1]; 25922: >100 µM
MIC S. aureus 6538P ([2]; 6538P): >100 µM
Inhibition of Degranulation (%) [5]: 30%
IC50 [3]: > 100 µM
Kd [6]: 4.4 µM

ALALALALALALALK-NH2 [(AL)7K]
MIC E. coli 25922 [1, 11]: >100 µM
MIC S. aureus 6538P [2, 11]: >100 µM
LC50 (cytotoxicity) [3]: > 100 µM

KALALALALALALAK-NH2 [K(AL)6AK]
MIC E. coli 25922 [1]; 25922: >100 µM
MIC S. aureus 6538P ([2]; 6538P): >100 µM
IC50 [3]: > 100 µM

KALALALALALALALALALK-NH2 [K(AL)9K]
MIC E. coli 25922 [1]; 25922: >100 µM
MIC S. aureus 6538P ([2]; 6538P): >100 µM
IC50 [3]: > 100 µM

KALALALKALALKALALALK-NH2 [K(AL)3K(AL)2K(AL)3K]
inhibition of LPS activation of macrophages (TNFα secretion), in words [7]: highly active
MIC E. coli 25922 [1]; 25922: 25 µM
MIC S. aureus 6538P ([2]; 6538P): 12.5 µM
IC50 [3]: 25 µM
Kd [6]: 9.6 µM

KKALALALALALAKK-NH2 [K2(AL)5AK2, KKALALALALALAKK]
inhibition of LPS activation of macrophages (TNFα secretion), in words [7]: lower activity
inhibition (LPS neutralization) ([7]; peptide 20 μM): 50%
MIC E. coli 25922 [1]; 25922: >100 µM
MIC S. aureus 6538P ([2]; 6538P): >100 µM
IC50 [3]: > 100 µM
Kd [6]: 2.7 µM

KKALALALALALALALALALALAKK [K2(AL)10AK2]
Survival of anaphylactic shock (%) [8]: 50%

KKALALALALALALALALKK [4D-K2(AL)8K2]
MIC E. coli 25922 [1, 11]: 100 µM
MIC S. aureus 6538P [2, 11]: 100 µM
LC50 (cytotoxicity) [3]: > 100 µM
Kd [6]: 15.6 µM

KKALALALALALALALALKK-NH2 [K2(AL)8K2]
MIC E. coli 25922 [1]; 25922: >100 µM
MIC S. aureus 6538P ([2]; 6538P): >100 µM
IC50 [3]: > 100 µM
adverse effects in vivo [9]: not adversely affected

KKALALALKK-NH2 [K2(AL)3K2, KKALALALKK]
inhibition of LPS activation of macrophages (TNFα secretion), in words [7]: inactive
MIC E. coli 25922 [1]; 25922: >100 µM
MIC S. aureus 6538P ([2]; 6538P): >100 µM
IC50 [3]: > 100 µM
Kd [6]: 10 to 15 µM

KKAVAVAVAVAVAVAVAVKK-NH2 [K2(AV)8K2]
inhibition of LPS activation of macrophages (TNFα secretion), in words [7]: medium inhibition; also recorded: lower activity
MIC E. coli 25922 [1]; 25922: >100 µM
MIC S. aureus 6538P ([2]; 6538P): >100 µM
inhibition of LTA activation of macrophages (TNFα secretion), in words [10]: good inhibition
IC50 [3]: 90 µM

LALALALALALALALALALK-NH2 [L(AL)9K]
MIC E. coli 25922 [1, 11]: >100 µM
MIC S. aureus 6538P [2, 11]: >100 µM
Survival of anaphylactic shock (%) [8]: 0%
protection from anaphylactic shock, in words ([8]; mouse, in vivo): failed also to give any protection
inhibition of IgE/DNP-BSA degranulation, in words [5]: no inhibition
Inhibition of Degranulation (%) [5]: 0%
LC50 (cytotoxicity) [3]: > 100 µM
